Measurements as given in ChEMBL document CHEMBL3885881, “DrugMatrix”.

Organism: Rattus norvegicus
Assay: DrugMatrix - Regimen: Daily Repeat
Format: toxicity, organism-based, Sprague-Dawley
Parameters: regimen Daily Repeat, gender Male, age 6-8 weeks
Conditions: in vivo, po, route oral GAVAGE, […]; for URIC ACID / ALANINE AMINOTRANSFERASE / ALBUMIN / ALKALINE PHOSPHATASE / ASPARTATE AMINOTRANSFERASE / BLOOD UREA NITROGEN / CARBON DIOXIDE / CHLORIDE / CHOLESTEROL / CREATINE PHOSPHOKINASE / CREATININE / GLUCOSE / LACTATE DEHYDROGENASE / LIPASE / PHOSPHORUS / POTASSIUM / SODIUM / TOTAL BILIRUBIN / TOTAL PROTEIN: tissue Plasma
[1] = 1 mg/kg, 120 h, tissue Blood, dose level Low, time 5 day
[2] = 1 mg/kg, 120 h, dose level Low, time 5 day
[3] = 2.75 mg/kg, 72 h, tissue Blood, dose level High, time 3 day
[4] = 2.75 mg/kg, 72 h, dose level High, time 3 day
[5] = 2.75 mg/kg, 120 h, tissue Blood, dose level High, time 5 day
[6] = 2.75 mg/kg, 120 h, dose level High, time 5 day

## C[C@H]1O[C@@H](O[C@H]2[C@@H](O)C[C@H](O[C@H]3[C@@H](O)C[C@H](O[C@H]4CC[C@@]5(C)[C@H](CC[C@@H]6[C@@H]5CC[C@]5(C)[C@@H](C7=CC(=O)OC7)CC[C@]65O)C4)O[C@@H]3C)O[C@@H]2C)C[C@H](O)[C@@H]1O [DIGITOXIN]
1 mg/kg, 72 h, dose level Low, time 3 day
  URIC ACID: 0.53 mg/dL
[1]
  ABSOLUTE BASOPHIL: 0 CELLS/uL
  ABSOLUTE EOSINOPHIL: 0 CELLS/uL
  ABSOLUTE LYMPHOCYTE: 9184 CELLS/uL
  ABSOLUTE MONOCYTE: 19 CELLS/uL
  ABSOLUTE SEGMENTED NEUTROPHIL: 697 CELLS/uL
  BASOPHIL: 0%
  EOSINOPHIL: 0%
  ERYTHROCYTE COUNT: 5.65 x10E6/uL
  HEMATOCRIT: 35.27%
  HEMOGLOBIN: 13.63 G/DL
  LEUKOCYTE COUNT: 9.9 x10E3/uL
  LYMPHOCYTE: 93%
  MEAN CORPUSCULAR HEMOGLOBIN: 24.2 pg
  MEAN CORPUSCULAR HEMOGLOBIN CONCENTRATION: 38.7 G/DL
  MEAN CORPUSCULAR VOLUME: 62.47 fL
  MONOCYTE: 0.33%
  NEUTROPHIL: 6.67%
  NUCLEATED RED BLOOD CELLS: 0 /100WBC
  PLATELET COUNT: 833 x10E3/uL
[2]
  ALANINE AMINOTRANSFERASE: 84.33 u/L
  ALBUMIN: 4.1 G/DL
  ALKALINE PHOSPHATASE: 531.67 u/L
  ASPARTATE AMINOTRANSFERASE: 83 u/L
  BLOOD UREA NITROGEN: 10.67 mg/dL
  CARBON DIOXIDE: 34.67 mmol/L
  CHLORIDE: 98.33 MEQ/L
  CHOLESTEROL: 76.67 mg/dL
  CREATINE PHOSPHOKINASE: 231.33 u/L
  CREATININE: 0.16 mg/dL
  GLUCOSE: 154 mg/dL
  LACTATE DEHYDROGENASE: 122.67 u/L
  LIPASE: 10 u/L
  PHOSPHORUS: 10.13 mg/dL
  POTASSIUM: 5.23 MEQ/L
  SODIUM: 142.43 MEQ/L
  TOTAL BILIRUBIN: 0.23 mg/dL
  TOTAL PROTEIN: 5.83 G/DL
  URIC ACID: 0.43 mg/dL
[3]
  ABSOLUTE BASOPHIL: 0 CELLS/uL
  ABSOLUTE EOSINOPHIL: 0 CELLS/uL
  ABSOLUTE LYMPHOCYTE: 10747 CELLS/uL
  ABSOLUTE MONOCYTE: 27.33 CELLS/uL
  ABSOLUTE SEGMENTED NEUTROPHIL: 592.33 CELLS/uL
  BASOPHIL: 0%
  EOSINOPHIL: 0%
  ERYTHROCYTE COUNT: 5.51 x10E6/uL
  HEMATOCRIT: 33.6%
  HEMOGLOBIN: 13.4 G/DL
  LEUKOCYTE COUNT: 11.37 x10E3/uL
  LYMPHOCYTE: 94.33%
  MEAN CORPUSCULAR HEMOGLOBIN: 24.33 pg
  MEAN CORPUSCULAR VOLUME: 61.03 fL
  MONOCYTE: 0.33%
  NEUTROPHIL: 5.33%
  NUCLEATED RED BLOOD CELLS: 0 /100WBC
  PLATELET COUNT: 448 x10E3/uL
[4]
  ALANINE AMINOTRANSFERASE: 73 u/L
  ALBUMIN: 3.8 G/DL
  ALKALINE PHOSPHATASE: 350.67 u/L
  ASPARTATE AMINOTRANSFERASE: 101.33 u/L
  BLOOD UREA NITROGEN: 11.67 mg/dL
  CARBON DIOXIDE: 23.33 mmol/L
  CHLORIDE: 96 MEQ/L
  CHOLESTEROL: 61.33 mg/dL
  CREATINE PHOSPHOKINASE: 274.33 u/L
  CREATININE: 0.13 mg/dL
  GLUCOSE: 147.33 mg/dL
  LACTATE DEHYDROGENASE: 153 u/L
  LIPASE: 10.67 u/L
  PHOSPHORUS: 9.03 mg/dL
  POTASSIUM: 5.47 MEQ/L
  SODIUM: 137.1 MEQ/L
  TOTAL BILIRUBIN: 0.2 mg/dL
  TOTAL PROTEIN: 5.33 G/DL
  URIC ACID: 0.67 mg/dL
[5]
  ABSOLUTE BASOPHIL: 0 CELLS/uL
  ABSOLUTE EOSINOPHIL: 0 CELLS/uL
  ABSOLUTE LYMPHOCYTE: 7671 CELLS/uL
  ABSOLUTE MONOCYTE: 21 CELLS/uL
  ABSOLUTE SEGMENTED NEUTROPHIL: 641.33 CELLS/uL
  BASOPHIL: 0%
  EOSINOPHIL: 0%
  ERYTHROCYTE COUNT: 5.28 x10E6/uL
  HEMATOCRIT: 33.33%
  HEMOGLOBIN: 12.97 G/DL
  LEUKOCYTE COUNT: 8.33 x10E3/uL
  LYMPHOCYTE: 92%
  MEAN CORPUSCULAR HEMOGLOBIN: 24.53 pg
  MEAN CORPUSCULAR VOLUME: 63 fL
  MONOCYTE: 0.33%
  NEUTROPHIL: 7.67%
  NUCLEATED RED BLOOD CELLS: 0.33 /100WBC
  PLATELET COUNT: 1052.33 x10E3/uL
[6]
  ALANINE AMINOTRANSFERASE: 67.67 u/L
  ALBUMIN: 4.03 G/DL
  ALKALINE PHOSPHATASE: 389.33 u/L
  ASPARTATE AMINOTRANSFERASE: 88.67 u/L
  BLOOD UREA NITROGEN: 14.67 mg/dL
  CARBON DIOXIDE: 35 mmol/L
  CHLORIDE: 99.67 MEQ/L
  CHOLESTEROL: 57.33 mg/dL
  CREATINE PHOSPHOKINASE: 199.67 u/L
  CREATININE: 0.15 mg/dL
  GLUCOSE: 156.67 mg/dL
  LACTATE DEHYDROGENASE: 157.67 u/L
  LIPASE: 9.67 u/L
  PHOSPHORUS: 10.33 mg/dL
  POTASSIUM: 5.37 MEQ/L
  SODIUM: 144.23 MEQ/L
  TOTAL BILIRUBIN: 0.17 mg/dL
  TOTAL PROTEIN: 5.67 G/DL
  URIC ACID: 0.5 mg/dL
